According to patent publication US8361970B2, “Growth factor binding molecules” (University of South Florida, priority 2000, dated 2013):
Where “and” joins values, the source holds several entries; their conditions need not be identical. Identical values can stand only once. Like-named read-outs stand apart in the source and are kept apart here. Positions of bridges follow the written chain, without caps; N, C: chain ends. Non-standard residues stand in square brackets, D forms with d. d2Nal = N[C@H](Cc1ccc2ccccc2c1)C(=O)O; dAbu = CC[C@@H](N)C(=O)O

Legend:
Type in all cases: cell-based
[1] = tested on: IGF-1 stimulated IGF-1R tyrosine phosphorylation; assay: Inhibition of IGF-1 stimulated IGFR tyrosine phosphorylation in IGFR/3T3 cells; settings: 100 μM; IGFR/3T3, IGF-1 stimulated
Procedure: (§1) The ability of the GFB library to block the ability of IGF-1 to stimulate the IFG-1 R tyrosine phosphorylation and MAP kinase activation is evaluated using the cell assay described above with IGF-1R/3T3 cells as target cell. […] A preferred embodiment of the invention is a compound that binds to an insulin-like growth factor-1, of the general structure III, wherein R is n-butyl, n-propyl, or benzyl, and X1, X2, X3, and X4 optionally comprise identical cyclic peptide loops of the general structure II, and wherein R1, R2, R3, and R4 are each amino acid side chains that define a tetrapeptide sequence, wherein said tetrapeptide is covalently attached at the amino and carboxy termini of said tetrapeptide to a 3-aminomethyl-5-aminobenzamide linking group.

[2] = tested on: IGF-1 stimulated MAP kinase activation; assay: Inhibition of IGF-1 stimulated MAP kinase (p42/p44) activation in IGFR/3T3 cells; settings: 100 μM; IGFR/3T3, IGF-1 stimulated
Procedure: (§2) In other experiments, starved NIH 3T3 cells (PDGF-AA, PDGF-BB, aFGF, bFGF), NIH 3T3 cells overexpressing EGFR. IGF-1R or Flk-1 and the human breast carcinoma SkBr3 that overexpresses ErbB2 (HRGβ) are pretreated with GFB-111 (100 μM) for 5 min before 10 min stimulation with the indicated growth factors at the concentrations shown above and aFGF (10 ng/ml), bFGF (50 ng/ml), IGF-1 (50 ng/ml) and HRGβ (10 ng/ml). Cell lysates are then immunoblotted with anti-phospho Erk1/Erk2 as described above.
as §1

[3] = tested on: PDGF-stimulated PDGFR tyrosine phosphorylation; assay: Inhibition of PDGF-stimulated PDGFR tyrosine phosphorylation in NIH 3T3 cells (anti-phosphotyrosine Western blot); settings: 5 min pretreatment, PDGF 10 ng/ml 10 min, read-out: (IC50) Inhibition PDGFR-Y-P
Procedure: Starved NIH 3T3 cells are pretreated with various growth factor binding agents (0-100 μM) for 5 min before stimulation with PDGF (10 ng/mL) for 10 min. The cells are then harvested and lysed, and the proteins from the lysates separated by SDS-PAGE and immunoblotted with an anti-phosphotyrosine antibody (4G10: Upstate Biotechnology, Lake Placid, N.Y.). The phosphotyrosine PDGF receptor bands are scanned, and the concentrations of growth factor binding molecules that inhibited the ability of PDGF to stimulate PDGFR tyrosine phosphorylation by 50% are determined.
(§3) Starved NIII 3T3 cells (PDGF-BB and PDGF-AA), NIH 3T3 cells overexpressing either EGFR (EGF) or Flk-1 (VEGF) are pre-treated with the indicated concentrations of GFB-111 for 5 minutes before 10 minutes of stimulation with PDGF-BB (10 ng/ml), PDGF-AA (10 ng/ml), EGF (100 ng/ml) and VEGF (50 ng/ml). Cell lysates are run on SDS-PAGE gels, then transferred to nitrocellulose and Western blotted with anti-phosphotyrosine (4G 10) or anti-phosphorylated Erk1/Erk2 (New England Biolabs).
A novel series of protein surface binding agents are prepared that bind PDGF and disrupt its signaling function. The molecules are composed of a central calix[4] arene scaffold to which is attached four peptide loop domains (FIG. 1). The peptide loop component is based on a cyclic hexapeptide in which two residues are replaced by a 3-aminomethylbenzoate dipeptide mimetic containing a 5-amino substituent for attachment to the scaffold. The resulting molecules (as shown in Table 1) contain a functionalized and variable surface approximately 500 Å^2 in area. Several peptide loop sequences are synthesized (Table 1) to provide molecular surfaces with negatively and positively charged as well as hydrophobic regions designed to bind to complementary areas on the target growth factor. To identify PDGF binding molecules from this library, a cell-based screening assay is developed with NIH 3T3 cells to detect molecules capable of blocking PDGF-BB-induced tyrosine autophosphorylation of the PDGF receptor. The ability of the identified molecules to bind PDGF-BB and inhibit interaction with its receptor is then confirmed biochemically. Starved NIH 3T3 cells are pretreated for 5 min with the synthetic molecules prior to stimulation with PDGF for 10 min. The effects of the molecules on PDGF-stimulated receptor tyrosine phosphorylation are determined by the antiphosphotyrosine Western blotting as described in Table 1. […] GFB-111 has four-fold symmetry containing 4 identical peptide loops with negative and hydrophobic residues, GlyAspGlyTyr (GDGY) (SEQ ID NO. 6), that are designed to be complementary to the PDGF surface involved in binding to PDGFR. The area of PDGF-BB that binds PDGFR is composed primarily of positive and hydrophobic residues.
Starved NIH 3T3 cells are pretreated with the various GFBs (0-100 μM) for 5 min. prior to stimulation with PDGF (10 ng/ml) for 10 min. The cells are then harvested lysed and the proteins from the lysates are separated by SDS-PAGE and immunoblotted with an anti-phosphotyrosine antibody (4G10, Upstate Biotechnology, Lake Placid, N.Y.). The phosphotyrosine PDGF receptor bands are scanned and the concentrations of GFBs that inhibit the ability of PDGF to stimulate PDGFR tyrosine phosphorylation by 50% are determined. Data for each compound is representative of at least two independent experiments. FIG. 1 illustrates the structure of growth factor binders. GFBs are synthesized as described by Park, H. D. et al., Protein surface recognition by synthetic receptors: A route to novel sub-micromolar inhibitors for chymotrypsin. J. Am. Chem. Soc. 121, 8-13 (1999); and Hamuro, Y. et al., A calixarene with four peptide loops: An antibody mimic for recognition of protein surfaces. Angew. Chemie Int. Ed. Engl. 36, 2680-2683 (1997), each herein incorporated by reference in its respective entirety.

[4] = tested on: PDGF-stimulated Erk1/Erk2 activation; assay: Inhibition of PDGF-stimulated activation of MAPK Erk1/Erk2 (p44/p42) in NIH 3T3 cells; settings: NIH 3T3, PDGF stimulated
Procedure: as §3, §2

[5] = tested on: VEGF-stimulated Flk-1 tyrosine phosphorylation; assay: Inhibition of VEGF-stimulated Flk-1 tyrosine phosphorylation in Flk-1/3T3 cells; settings: Flk-1/3T3, VEGF stimulated; read-out: (IC50) Inhibition Flk-1-Y-P
Procedure: as §3
(§4) In order to identify molecules that would bind vascular endothelial growth factor (VEGF), Flk-1/3T3 cell-based assay is used that relies on VEGF-stimulation of its receptor, Flk-1, tyrosine phosphorylation and subsequent MAP-kinase activation. The assay used herein identical to that used for PDGF, except that NIH 3T3 cells that overexpress Flk-1 are used. GFB-116, which has four identical loops with the sequence GKGK (SEQ ID NO. 10) is shown to be very potent and selective toward blocking the ability of VEGF to stimulate Flk-1 tyrosine phosphorylation and subsequent MAP-kinase activation as measured by phospho erk-1 and erk-2 also referred to in the Table as p42 and p44 (Table 4A). A preferred embodiment of the invention is a compound that binds to a vascular endothelial growth factor, of the general structure III (above) in which R is n-butyl, n-propyl, or benzyl, and X comprise covalently attached identical cyclic peptide loops wherein R1, R2, R3, and R4 are each amino acid side chains, as broadly defined above, that define a tetrapeptide sequence, wherein said tetrapeptide is covalently attached at the amino and carboxy termini of said tetrapeptide to 3-aminomethyl-5-aminobenzamide linking group, and wherein said tetrapeptide sequence is GKGK (SEQ ID NO. 10), GDGY (SEQ ID NO. 6), or functionally related derivatives thereof.

[6] = tested on: VEGF-stimulated MAP kinase activation; assay: Inhibition of VEGF-stimulated MAP kinase (p42/p44, Erk2/Erk1) activation in Flk-1/3T3 cells; settings: Flk-1/3T3, VEGF stimulated
Procedure: as §3, §2, §4

[7] = head p42/Erk2 (p42 for GFB-132 to 137), read-out: (IC50) Inhibition p42/Erk2
[8] = read-out: (IC50) Inhibition p44
[9] = read-out: (IC50) Inhibition p42

Substance	IC50 [3] [µM]	IC50 [4, 7] [µM]	IC50 [4, 8] [µM]	IC50 [5] [µM]	IC50 [6, 9] [µM]	IC50 [6, 8] [µM]	% Inhibition at 100 μM IGF1R-Y-P [1]	% Inhibition at 100 μM p42 [2] [%]	% Inhibition at 100 μM p44 [2]
GDDG [GFB-123]	> 50	> 50	–	–	–	–	24.2%	26.7	62.4%
GFGD [GFB-101]	> 500	> 500	–	> 100	> 100	> 100	–	–	–
GDDD [GFB-129]	–	–	–	–	–	–	3.4%	2.8	33.4%
GDGD [GFB-104]	> 500	> 500	–	–	–	–	−28.4%	−0.19	22.4%
GDDG [GFB-131]	–	–	–	–	–	–	30.2%	−6.2	20.0%
GDGY [GFB-128]	26	> 50	–	–	–	–	−12.0%	−6.1	38.2%
GDGD [GFB-103]	> 500	> 500	–	–	–	–	–	–	–
GDDY [GFB-130]	–	–	–	–	–	–	22.7%	−19.7	−17.5%
GDFD [GFB-102]	> 500	–	–	–	> 100	> 100	–	–	–
GKGF [GFB-115]	> 50	> 50	–	–	–	–	−38.3%	−12.4	51.9%

More lines, in order of falling IC50 [3], values ahead:

IC50 [3] [µM]	IC50 [4, 7] [µM]	IC50 [4, 8] [µM]	IC50 [5] [µM]	IC50 [6, 9] [µM]	IC50 [6, 8] [µM]	Substance	% Inhibition at 100 μM IGF1R-Y-P [1]	% Inhibition at 100 μM p42 [2] [%]	% Inhibition at 100 μM p44 [2]
20	32	–	–	–	–	PDGD [GFB-119]	16.7%	29.7	66.2%
9	57	–	10	50	50	But-Calix scaffold with peptide loops 4-d-ADGD, (D-Ala)-Asp-Gly-Asp (SEQ ID NO. 3) ([dA]DGD; linker N-C via 3‑aminomethyl‑5‑aminobenzamide; also: peptide loops (4) attached to But-Calix scaffold) [GFB-108]	–	67.8	80.1%
7.5	15	–	–	–	–	GDLD [GFB-109]	–	68.3	79.7%
5.8	36	–	–	–	–	GDND [GFB-117]	4.9%	17.1	61.5%
5.6	8.5	–	–	–	–	GFB-121: But-Calix scaffold with peptide loops 4-D-AbuDGD (SEQ ID NO. 18) ([dAbu]DGD; linker N-C via 3‑aminomethyl‑5‑aminobenzamide; also: four loops attached to But-Calix scaffold)	33.8%	28.3	62.1%
3	25	24	–	–	–	GDDD [GFB-136]	40.6%	15.0	–
2.5	10	–	< 10	–	–	GDGD [GFB-107]	–	57.3	59.7%
1.9	2.5	2.6	–	–	–	GDGY [GFB-134]	16.8%	4.9	53.5%
1.9	3.2	24	–	–	–	GDGY [GFB-135]	16.2%	0.8	46.1%
1.7	19	–	–	–	–	GDDY [GFB-122]	38.4%	33.6	66.6%
1.7	7	–	–	–	–	GDAD [GFB-110]	40.9% and 32.4%	–	55.4% and 47.1%
1.3	1.7	–	–	–	–	GDDG [GFB-120]	35.4%	68.1	85.9%
0.7	1.2	–	–	–	–	GFB-118: But-Calix scaffold with peptide loops 4-D-2-NalDGD (SEQ ID NO. 17) ([d2Nal]DGD; linker N-C via 3‑aminomethyl‑5‑aminobenzamide; also: four loops attached to But-Calix scaffold)	1.5%	16.4	55.2%
0.4	2.9	47	–	–	–	GDGY [GFB-137]	36.0%	5.9	38.2%
0.4	2.9	3	–	–	–	GDGY [GFB-132]	30.2%	11.0	39.4%
